Test system: collagen 1
Assay: WI-38 collagen 1 inhibition assay (anti-Collagen I immunofluorescence);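 also: minus sign means inactive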
Format: cell-based
Settings: cellular EC50, WI-38 human lung fibroblasts, values are LogEC50 classes
Description: WI-38 cells (ATCC® CCL-75™) were maintained in MEM EAGLE (NEAA) W. GLUTAMIN (Biological Industries, Cat. 06-1040-15-1A) containing 10% fetal bovine serum (FBS) and 1% Penicillin-Streptomycin Solution. To synchronize the cells (cell cycle synchronization) prior to induction of collagen synthesis, the cells were starved using DMEM-low glucose supplemented with 0.25% FBS for two hours and then without FBS for 24 hours. To induce collagen synthesis, the cells were treated with a collagen induction cocktail for the indicated time. Compounds were added with induction.
Cells in 96-well or 384-well plates were fixed for 20 min in 4% paraformaldehyde (PFA, ENCO, Cat. sc-281692). Following two washes with 1×PBS, cells were treated with hydrogen peroxide (Acros, Cat: 7722-84-1) for 10 minutes and then washed twice with 1×PBS. Cells were then incubated over-night at 4° C. with Anti-Collagen I (Sigma-Aldrich, Cat: C 2456) antibody and washed three times with 1×PBS. Cell were then incubated with a suitable secondary fluorescently-tagged antibody and nuclei stained with DAPI, for 1 hour, and then washed 3 times with 1×PBS.
Cell images were taken with Operetta (Perkin Elmer, USA), a wide-field fluorescence microscope at 20× magnification. After acquisition, the images were transferred to Columbus software (Perkin-Elmer) for image analysis. In Columbus, cells were identified by their nucleus, using the “Find Nuceli” module and cytoplasm was detected based on the secondary antibody channel. Subsequently, the fluorescent signal was enumerated in the identified cell region. Data was exported to a data analysis and visualization software, Tibco Spotfire, USA.

SMILES | COL1 Efficacy (LogEC50)
Cc1ncnc(N2CCN(Cc3nc4ccc(C(F)(F)F)cc4[nH]3)CC2)c1C [Compound 201, 2-((4-(5,6-dimethylpyrimidin-4-yl)piperazin-1-yl)methyl)-6-(trifluoromethyl)-1H-benzo[d]imidazole] | +++ (+++: <−6)
Cc1ncnc(N2CCN(Cc3cc4ccccc4[nH]3)CC2)c1C [Compound 202, 2-((4-(5,6-dimethylpyrimidin-4-yl)piperazin-1-yl)methyl)-1H-indole] | +++ (+++: <−6)
FC(F)(F)c1ccc2nc(CN3CCN(c4ccncn4)CC3)[nH]c2c1 [Compound 203, 2-((4-(pyrimidin-4-yl)piperazin-1-yl)methyl)-6-(trifluoromethyl)-1H-benzo[d]imidazole] | ++ (++: −5 to −6)
FC(F)(F)c1ccc2nc(CN3CCN(c4ccncc4)CC3)[nH]c2c1 [Compound 209, 2-((4-(pyridin-4-yl)piperazin-1-yl)methyl)-6-(trifluoromethyl)-1H-benzo[d]imidazole] | + (+: >−5)
Cc1ncnc(N2CCN(Cc3cc4cc(Cl)ccc4[nH]3)CC2)c1C [Compound 210, 5-chloro-2-((4-(5,6-dimethylpyrimidin-4-yl)piperazin-1-yl)methyl)-1H-indole] | +++ (+++: <−6)
CCc1cncnc1N1CCN(Cc2nc3ccc(Cl)cc3[nH]2)CC1 [Compound 211, 6-chloro-2-((4-(5-ethylpyrimidin-4-yl)piperazin-1-yl)methyl)-1H-benzo[d]imidazole] | +++ (+++: <−6)
c1ccc2[nH]c(CN3CCN(c4ccncc4)CC3)cc2c1 [Compound 212, 2-((4-(pyridin-4-yl)piperazin-1-yl)methyl)-1H-indole] | +++ (+++: <−6)
c1ccc2[nH]c(CN3CCN(c4ccncn4)CC3)cc2c1 [Compound 213, 2-((4-(pyrimidin-4-yl)piperazin-1-yl)methyl)-1H-indole] | +++ (+++: <−6)
c1ccc(N2CCN(Cc3cc4ccccc4[nH]3)CC2)nc1 [Compound 216, 2-[[4-(2-pyridyl)piperazin-1-yl]methyl]-1H-indole] | + (+: >−5)
c1cncc(N2CCN(Cc3cc4ccccc4[nH]3)CC2)c1 [Compound 217, 2-[[4-(3-pyridyl)piperazin-1-yl]methyl]-1H-indole] | + (+: >−5)
c1cncc(CN2CCN(Cc3cc4ccccc4[nH]3)CC2)c1 [Compound 218, 2-[[4-(3-pyridylmethyl)piperazin-1-yl]methyl]-1H-indole] | + (+: >−5)
Cc1cc(N2CCN(Cc3cc4ccccc4[nH]3)CC2)ccn1 [Compound 221, 2-[[4-(2-methyl-4-pyridyl)piperazin-1-yl]methyl]-1H-indole] | −
Cc1cnccc1N1CCN(Cc2cc3ccccc3[nH]2)CC1 [Compound 222, 2-[[4-(3-methyl-4-pyridyl)piperazin-1-yl]methyl]-1H-indole] | ++ (++: −5 to −6)
FC(F)(F)c1cccnc1N1CCN(Cc2cc3ccccc3[nH]2)CC1 [Compound 225, 2-[[4-[3-(trifluoromethyl)-2-pyridyl]piperazin-1-yl]methyl]-1H-indole] | + (+: >−5)
CN1CCC(N2CCN(Cc3cc4ccccc4[nH]3)CC2)CC1 [Compound 227, 2-[[4-(1-methyl-4-piperidyl)piperazin-1-yl]methyl]-1H-indole] | −
c1ccc2[nH]c(CN3CCN(c4nccs4)CC3)cc2c1 [Compound 229, 2-[4-(1H-indol-2-ylmethyl)piperazin-1-yl]thiazole] | ++ (++: −5 to −6)
CCCN1CCN(Cc2cc3ccccc3[nH]2)CC1 [Compound 230, 2-[(4-propylpiperazin-1-yl)methyl]-1H-indole] | + (+: >−5)
O=C(c1cccnc1)N1CCN(Cc2cc3ccccc3[nH]2)CC1 [Compound 231, [4-(1H-indol-2-ylmethyl)piperazin-1-yl]-(3-pyridyl)methanone] | −
O=C(C1CCCCC1)N1CCN(Cc2cc3ccccc3[nH]2)CC1 [Compound 232, Cyclohexyl-[4-(1H-indol-2-ylmethyl)piperazin-1-yl]methanone] | ++ (++: −5 to −6)
c1ccc2[nH]c(CN3CCN(C4CCCC4)CC3)cc2c1 [Compound 233, 2-[(4-cyclopentylpiperazin-1-yl)methyl]-1H-indole] | + (+: >−5)
c1ccc2[nH]c(CN3CCN(c4nccc5occc45)CC3)cc2c1 [Compound 235, 4-[4-(1H-indol-2-ylmethyl)piperazin-1-yl]furo[3,2-c]pyridine] | + (+: >−5)
c1ccc2[nH]c(CN3CCN(c4ccnc5ccccc45)CC3)cc2c1 [Compound 236, 4-[4-(1H-indol-2-ylmethyl)piperazin-1-yl]quinolone] | ++ (++: −5 to −6)
c1ccc2nc(N3CCN(Cc4cc5ccccc5[nH]4)CC3)ccc2c1 [Compound 237, 2-[4-(1H-indol-2-ylmethyl)piperazin-1-yl]quinolone] | ++ (++: −5 to −6)

SMILES | COL1 Efficacy (LogEC50)
Cc1cccnc1N1CCN(Cc2cc3ccccc3[nH]2)CC1 [Compound 238, 2-[[4-(3-methyl-2-pyridyl)piperazin-1-yl]methyl]-1H-indole] | ++ (++: −5 to −6)
CC(C)CC(=O)N1CCN(Cc2cc3ccccc3[nH]2)CC1 [Compound 239, 1-[4-(1H-indol-2-ylmethyl)piperazin-1-yl]-3-methyl-butan-1-one] | ++ (++: −5 to −6)
c1ccc2[nH]c(CN3CCN(c4ccc5cn[nH]c5c4)CC3)cc2c1 [Compound 286, 6-(4-((1H-indol-2-yl)methyl)piperazin-1-yl)-1H-indazole] | −
FC(F)(F)c1ccc2nc(CN3CCN(c4ccccc4)CC3)[nH]c2c1 [compound 200] | −
Cc1ncnc(N2CCN(Cc3[nH]c4ccc(Cl)cc4c3C)CC2)c1C [compound 204] | ++ (++: −5 to −6)
Cc1cc2c(N3CCN(Cc4nc5ccccc5[nH]4)CC3)ncnc2s1 [compound 205] | ++ (++: −5 to −6)
c1ccc(-c2nc3c(c(N4CCN(Cc5cc6ccccc6[nH]5)CC4)n2)CCC3)cc1 [compound 207] | ++ (++: −5 to −6)
c1ccc2[nH]c(CN3CCN(c4cc(-n5cccn5)ncn4)CC3)nc2c1 [compound 208] | ++ (++: −5 to −6)
CCc1cncnc1N1CCN(Cc2nc3ccc(C(F)(F)F)cc3[nH]2)CC1 [compound 214] | +++ (+++: <−6)
Brc1ccc2[nH]c(CN3CCN(c4ccncc4)CC3)cc2c1 [compound 215, 5-bromo-2-[[4-(4-pyridyl)piperazin-1-yl]methyl]-1H-indole] | −
c1ccc(-c2ccc3[nH]c(CN4CCN(c5ccncc5)CC4)cc3c2)cc1 [compound 219, 5-phenyl-2-[[4-(4-pyridyl)piperazin-1-yl]methyl]-1H-indole] | −
c1cncc(-c2ccc3[nH]c(CN4CCN(c5ccncc5)CC4)cc3c2)c1 [compound 220, 5-(3-pyridyl)-2-[[4-(4-pyridyl)piperazin-1-yl]methyl]-1H-indole] | −
COc1ccc2[nH]c(CN3CCN(c4ccncc4)CC3)cc2c1 [compound 223, 5-methoxy-2-[[4-(4-pyridyl)piperazin-1-yl]methyl]-1H-indole] | −
Brc1ccc2cc(CN3CCN(c4ccncc4)CC3)[nH]c2c1 [compound 224, 6-bromo-2-[[4-(4-pyridyl)piperazin-1-yl]methyl]-1H-indole] | + (+: >−5)
FC(F)(F)c1ccc2[nH]c(CN3CCN(c4ccncc4)CC3)cc2c1 [compound 226, 2-[[4-(4-pyridyl)piperazin-1-yl]methyl]-5-(trifluoromethyl)-1H-indole] | + (+: >−5)
COc1ccc2cc(CN3CCN(c4ccncc4)CC3)[nH]c2c1 [compound 228, 6-methoxy-2-[[4-(4-pyridyl)piperazin-1-yl]methyl]-1H-indole] | + (+: >−5)
c1ccc2[nH]c(CN3CCN(c4nccc5ccccc45)CC3)cc2c1 [compound 234] | + (+: >−5)
Clc1ccc2cc(CN3CCN(c4ccncc4)CC3)[nH]c2c1 [compound 240, 6-chloro-2-[[4-(4-pyridyl)piperazin-1-yl]methyl]-1H-indole] | + (+: >−5)
c1ccc(N2CCN(Cc3cc4ccccc4[nH]3)CC2)cc1 [compound 241, 2-[(4-phenylpiperazin-1-yl)methyl]-1H-indole] | ++ (++: −5 to −6)
c1ccc2[nH]c(CN3CCN(c4ccnc5[nH]ccc45)CC3)cc2c1 [compound 242, 4-[4-(1H-indol-2-ylmethyl)piperazin-1-yl]-1H-pyrrolo[2,3-b]pyridine] | + (+: >−5)
Clc1cccc2[nH]c(CN3CCN(c4ccncc4)CC3)cc12 [compound 243, 4-chloro-2-[[4-(4-pyridyl)piperazin-1-yl]methyl]-1H-indole] | −
O=C(c1cc2ccccc2[nH]1)N1CCN(c2ccncc2)CC1 [compound 244, (1H-indol-2-yl)(4-(pyridin-4-yl)piperazin-1-yl)methanone] | + (+: >−5)

Source: US20230150980A1, “COLLAGEN 1 TRANSLATION INHIBITORS AND METHODS OF USE THEREOF” (Anima Biotech Inc., priority 2020, published 2023)
